Measured values published in patent US10544095B2 (Pfizer Inc., priority 2015, dated 2020).

The compounds below were run against hTDO2 in human glioblastoma A172 cells (Homo sapiens (Human), UniProt P48775) (assay: Cellular assay for TDO2 activity determination in A172 cells). Conditions: overnight incubation, kynurenine absorbance at 480 nm.
Type: cell-based
Method: The compounds of formula I inhibit the activity of human TDO2 in cells that constitutively express TDO2, such as A172 cells. A172 is a cell line derived from human brain glioblastoma cells. The cells are available from the American Type Culture Collection (ATCC®) as CRL-1620™.
The assay (adapted from Pilotte L et al., Proc Natl Acad Sci USA, 2012, 109(7), 2497-502) was performed in 96-well flat bottom plates seeded with human glioblastoma A172 cells, naturally expressing hTDO2 (prepared as described in Tilman et al., Mol Cancer, 2007, 17(6), 80), at a concentration of 1.25×10^4 cells/well in a final volume of 200 μL. To determine TDO, the cells were incubated overnight at 37° C. at 5% CO2 in IMDM (Invitrogen) supplemented with 2% FBS and 2% penicillin/streptomycin in the presence of the compounds of the present invention, at different concentrations.
The plates were then centrifuged 5 min at 1000 rpm, and 100 μL of the supernatant were collected in a conical plate, 30 μL of TCA 30% were added and a further centrifuged at 3000×g for 10 minutes. 100 μL of the supernatant were collected in a flat bottomed plate and 100 μL of 2% (w/v) 4-(dimethylamino)-benzaldehyde in acetic acid and incubated for 5 min at room temperature. Kynurenine concentrations were determined by measuring the absorbance at 480 nm. A standard curve was made with pure kynurenine. The TDO activity was measured as described above using ten serial concentrations of the compounds of the present invention. Data were fitted using the Prism™ software (GraphPad Software, Inc.) using standard parameters.

Sequence of hTDO2 in human glioblastoma A172 cells (P48775 whole entry): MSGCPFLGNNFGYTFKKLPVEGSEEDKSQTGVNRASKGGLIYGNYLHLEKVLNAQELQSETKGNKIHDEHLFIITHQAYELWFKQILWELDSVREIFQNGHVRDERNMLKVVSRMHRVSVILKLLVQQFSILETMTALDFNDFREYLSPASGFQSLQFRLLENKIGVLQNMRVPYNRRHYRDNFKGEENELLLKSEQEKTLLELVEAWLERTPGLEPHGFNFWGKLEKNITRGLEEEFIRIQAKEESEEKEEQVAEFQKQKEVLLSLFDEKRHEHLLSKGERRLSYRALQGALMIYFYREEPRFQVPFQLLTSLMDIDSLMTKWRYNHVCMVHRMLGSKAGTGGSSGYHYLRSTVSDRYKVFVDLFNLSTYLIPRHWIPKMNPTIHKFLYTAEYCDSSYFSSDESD

**Q.** With `CN1CCN(C(=O)NCCNS(=O)(=O)c2ccc(-c3c[nH]c4cc(F)ccc34)cc2)CC1` [Example 110, N-(2-(4-(6-fluoro-1H-indol-3-yl)phenylsulfonamido)ethyl)-4-methylpiperazine-1-carboxamide] as the compound, how does the IC50 read?
**A.** 180 nM

**Q.** Which IC50 does the source give for `C[C@@H](O)[C@H](C)N(CCO)S(=O)(=O)c1ccc(-c2c[nH]c3cc(F)ccc23)cc1` [Example 111, 4-(6-fluoro-1H-indol-3-yl)-N-((2S,3R)-3-hydroxybutan-2-yl)-N-(2-hydroxyethyl)benzene sulfonamide] here?
**A.** 146 nM

**Q.** `O=S(=O)(c1ccc(-c2c[nH]c3cc(F)ccc23)cc1)N1CCOC[C@@H]1CO` [Example 112, (S)-(4-((4-(6-fluoro-1H-indol-3-yl)phenyl)sulfonyl)morpholin-3-yl)methanol] was tested. Which IC50 did it give?
**A.** 116 nM

**Q.** How did the IC50 turn out when `Cn1nccc1C1(O)CCN(S(=O)(=O)c2ccc(-c3c[nH]c4cc(F)ccc34)cc2)C1` (stereo not drawn) [Example 113, 1-((4-(6-fluoro-1H-indol-3-yl)phenyl)sulfonyl)-3-(1-methyl-1H-pyrazol-5-yl)pyrrolidin-3-ol] was run?
**A.** 90500 nM

**Q.** With `Cn1cc(CN(CCO)S(=O)(=O)c2ccc(-c3c[nH]c4cc(F)ccc34)cc2)cn1` [Example 114, 4-(6-fluoro-1H-indol-3-yl)-N-(2-hydroxyethyl)-N-((1-methyl-1H-pyrazol-4-yl)methyl) benzenesulfonamide] as the compound, how does the IC50 read?
**A.** 91000 nM

**Q.** `O=S(=O)(c1ccc(-c2c[nH]c3cc(F)ccc23)cc1)N1CCOC[C@H]1CO` [Example 115, (R)-(4-((4-(6-fluoro-1H-indol-3-yl)phenyl)sulfonyl)morpholin-3-yl)methanol] was tested. Which IC50 did it give?
**A.** 133 nM

**Q.** `C[C@]1(O)CCN(S(=O)(=O)c2ccc(-c3c[nH]c4cc(F)ccc34)cc2)C1` [Example 116, (S)-1-((4-(6-fluoro-1H-indol-3-yl)phenyl)sulfonyl)-3-methylpyrrolidin-3-ol] was tested. Which IC50 did it give?
**A.** 92000 nM

**Q.** `O=S(=O)(c1ccc(-c2c[nH]c3cc(F)ccc23)cc1)N(CCO)CCCO` [Example 117, 4-(6-fluoro-1H-indol-3-yl)-N-(2-hydroxyethyl)-N-(3-hydroxypropyl)benzenesulfonamide] was tested. Which IC50 did it give?
**A.** 109 nM

**Q.** For `O=S(=O)(c1ccc(-c2c[nH]c3cc(F)ccc23)cc1)N1CCOCC(O)C1` (stereo not drawn) [Example 118, 4-((4-(6-fluoro-1H-indol-3-yl)phenyl)sulfonyl)-1,4-oxazepan-6-ol], which IC50 is on record?
**A.** 89 nM

**Q.** For `O=S(=O)(c1ccc(-c2c[nH]c3cc(F)ccc23)cc1)N1CCC(O)(c2ccncn2)C1` (stereo not drawn) [Example 119, 1-((4-(6-fluoro-1H-indol-3-yl)phenyl)sulfonyl)-3-(pyrimidin-4-yl)pyrrolidin-3-ol], which IC50 is on record?
**A.** 123 nM

**Q.** With `CN(CC(O)c1cccnn1)S(=O)(=O)c1ccc(-c2c[nH]c3cc(F)ccc23)cc1` (stereo not drawn) [Example 121, 4-(6-fluoro-1H-indol-3-yl)-N-(2-hydroxy-2-(pyridazin-3-yl)ethyl)-N-methylbenzene-sulfonamide] as the compound, how does the IC50 read?
**A.** 156 nM

**Q.** Which IC50 does the source give for `Cc1nccn1CC1(O)CCCN(S(=O)(=O)c2ccc(-c3c[nH]c4cc(F)ccc34)cc2)C1` (stereo not drawn) [Example 122, 1-((4-(6-fluoro-1H-indol-3-yl)phenyl)sulfonyl)-3-((2-methyl-1H-imidazol-1-yl)methyl) piperidin-3-ol] here?
**A.** 86000 nM

**Q.** With `O=S(=O)(c1ccc(-c2c[nH]c3cc(F)ccc23)cc1)N1C[C@@H](F)C[C@H]1CO` [Example 123, ((2S,4S)-4-fluoro-1-((4-(6-fluoro-1H-indol-3-yl)phenyl)sulfonyl)pyrrolidin-2-yl)methanol] as the compound, how does the IC50 read?
**A.** 138 nM

**Q.** With `O=S(=O)(c1ccc(-c2c[nH]c3cc(F)ccc23)cc1)N1CCC(O)C1` (stereo not drawn) [Example 124, 1-((4-(6-fluoro-1H-indol-3-yl)phenyl)sulfonyl) pyrrolidin-3-ol] as the compound, how does the IC50 read?
**A.** 93500 nM

**Q.** With `O=S(=O)(c1ccc(-c2c[nH]c3cc(F)ccc23)cc1)N1C[C@H](F)C[C@@H]1CO` [Example 125, ((2R,4R)-4-fluoro-1-((4-(6-fluoro-1H-indol-3-yl)phenyl)sulfonyl)pyrrolidin-2-yl)methanol] as the compound, how does the IC50 read?
**A.** 97 nM

**Q.** With `O=S(=O)(c1ccc(-c2c[nH]c3cc(F)ccc23)cc1)N1C[C@@H](F)C[C@@H]1CO` [Example 126, ((2R,4S)-4-fluoro-1-((4-(6-fluoro-1H-indol-3-yl)phenyl)sulfonyl)pyrrolidin-2-yl)methanol] as the compound, how does the IC50 read?
**A.** 145 nM

**Q.** How did the IC50 turn out when `O=C1CCCN1CC1(O)CCN(S(=O)(=O)c2ccc(-c3c[nH]c4cc(F)ccc34)cc2)C1` (stereo not drawn) [Example 127, 1-((1-((4-(6-fluoro-1H-indol-3-yl)phenyl)sulfonyl)-3-hydroxypyrrolidin-3-yl)methyl)pyrrolidin-2-one] was run?
**A.** 85500 nM

**Q.** `O=S(=O)(c1ccc(-c2c[nH]c3cc(F)ccc23)cc1)N1CC[C@@H](O)[C@@H](O)C1` [Example 128, (3S,4R)-1-((4-(6-fluoro-1H-indol-3-yl)phenyl)sulfonyl)piperidine-3,4-diol] was tested. Which IC50 did it give?
**A.** 93500 nM

**Q.** How did the IC50 turn out when `O=S(=O)(c1ccc(-c2c[nH]c3cc(F)ccc23)cc1)N1C[C@H](F)[C@@H](O)[C@H](O)[C@H]1CO` [Example 129, (2R,3R,4S,5S)-5-f1uoro-1-((4-(6-fluoro-1H-indol-3-yl)phenyl)sulfonyl)-2-(hydroxymethyl) piperidine-3,4-diol] was run?
**A.** 92000 nM

**Q.** `O=S(=O)(c1ccc(-c2c[nH]c3cc(F)ccc23)cc1)N1CC[C@@H](O)[C@H](O)C1` [Example 130, (3R,4R)-1-((4-(6-fluoro-1H-indol-3-yl)phenyl)sulfonyl)piperidine-3,4-diol] was tested. Which IC50 did it give?
**A.** 96 nM

**Q.** For `Cc1nccn1CC1(O)CCN(S(=O)(=O)c2ccc(-c3c[nH]c4cc(F)ccc34)cc2)C1` (stereo not drawn) [Example 131, 1-((4-(6-fluoro-1H-indol-3-yl)phenyl)sulfonyl)-3-((2-methyl-1H-imidazol-1-yl)methyl)pyrrolidin-3-ol], which IC50 is on record?
**A.** 90000 nM

**Q.** `O=C1CCCN1CC1(O)CCCN(S(=O)(=O)c2ccc(-c3c[nH]c4cc(F)ccc34)cc2)C1` (stereo not drawn) [Example 132, 1-((1-((4-(6-fluoro-1H-indol-3-yl)phenyl)sulfonyl)-3-hydroxypiperidin-3-yl)methyl)pyrrolidin-2-one] was tested. Which IC50 did it give?
**A.** 83000 nM

**Q.** For `CN(CC(O)c1ncc[nH]1)S(=O)(=O)c1ccc(-c2c[nH]c3cc(F)ccc23)cc1` (stereo not drawn) [Example 133, 4-(6-fluoro-1H-indol-3-yl)-N-(2-hydroxy-2-(1H-imidazol-2-yl)ethyl)-N-methylbenzene-sulfonamide], which IC50 is on record?
**A.** 169 nM

**Q.** How did the IC50 turn out when `O=S(=O)(c1ccc(-c2c[nH]c3cc(F)ccc23)cc1)N1C[C@H](O)[C@@H](O)[C@@H]1CO` [Example 134, (2S,3S,4S)-1-((4-(6-fluoro-1H-indol-3-yl)phenyl)sulfonyl)-2-(hydroxymethyl) pyrrolidine-3,4-diol] was run?
**A.** 125 nM

**Q.** Which IC50 does the source give for `CN(CC(O)c1cnccn1)S(=O)(=O)c1ccc(-c2c[nH]c3cc(F)ccc23)cc1` (stereo not drawn) [Example 135, 4-(6-fluoro-1H-indol-3-yl)-N-(2-hydroxy-2-(pyrazin-2-yl)ethyl)-N-methylbenzene-sulfonamide] here?
**A.** 161 nM

**Q.** How did the IC50 turn out when `NS(=O)(=O)c1ccc(-c2c[nH]c3cc(F)ccc23)c(Cl)c1` [Example 136, 3-chloro-4-(6-fluoro-1H-indol-3-yl) benzenesulfonamide] was run?
**A.** 271 nM

**Q.** With `NS(=O)(=O)c1cc(Cl)c(-c2c[nH]c3cc(F)ccc23)c(Cl)c1` [Example 137, 3,5-dichloro-4-(6-fluoro-H-indol-3-yl)-benzenesulfonamide] as the compound, how does the IC50 read?
**A.** 7510 nM

**Q.** `CN(C)C(=O)Cc1cc(-c2c[nH]c3cc(F)ccc23)ccc1S(N)(=O)=O` [Example 138, 2-(5-(6-fluoro-1H-indol-3-yl)-2-sulfamoylphenyl)-N,N-dimethylacetamide] was tested. Which IC50 did it give?
**A.** 3160 nM

**Q.** How did the IC50 turn out when `NS(=O)(=O)c1ccc(-c2c[nH]c3cc(F)ccc23)cc1CCO` [Example 139, 4-(6-fluoro-1H-indol-3-yl)-2-(2-hydroxyethyl)-benzenesulfonamide] was run?
**A.** 120 nM

**Q.** Which IC50 does the source give for `CNCCc1cc(-c2c[nH]c3cc(F)ccc23)ccc1S(N)(=O)=O` [Example 140, 4-(6-fluoro-1H-indol-3-yl)-2-(2-(methylamino)ethyl)-benzenesulfonamide] here?
**A.** 541 nM

**Q.** With `CN(C)CCc1cc(-c2c[nH]c3cc(F)ccc23)ccc1S(N)(=O)=O` [Example 141, 2-(2-(dimethylamino)ethyl)-4-(6-fluoro-1H-indol-3-yl)benzenesulfonamide] as the compound, how does the IC50 read?
**A.** 295 nM

**Q.** How did the IC50 turn out when `NS(=O)(=O)c1ccc(-c2c[nH]c3cc(F)ccc23)cc1CC(F)(F)F` [Example 142, 4-(6-fluoro-1H-indol-3-yl)-2-(2,2,2-trifluoroethyl)-benzenesulfonamide] was run?
**A.** 247 nM

**Q.** How did the IC50 turn out when `CNC(=O)Cc1cc(-c2c[nH]c3cc(F)ccc23)ccc1S(N)(=O)=O` [Example 143, 2-(5-(6-fluoro-1H-indol-3-yl)-2-sulfamoylphenyl)-N-methylacetamide] was run?
**A.** 550 nM

**Q.** For `NC(=O)Cc1cc(-c2c[nH]c3cc(F)ccc23)ccc1S(N)(=O)=O` [Example 144, 2-(5-(6-fluoro-1H-indol-3-yl)-2-sulfamoylphenyl)-acetamide], which IC50 is on record?
**A.** 174 nM

**Q.** `CN1C(=O)CN(S(=O)(=O)c2ccc(-c3c[nH]c4cc(F)ccc34)cc2)CC1=O` [Example 145, 4-((4-(6-fluoro-1H-indol-3-yl)phenyl)sulfonyl)-1-methylpiperazine-2,6-dione] was tested. Which IC50 did it give?
**A.** 3610 nM

**Q.** With `O=C1CN(S(=O)(=O)c2ccc(-c3c[nH]c4cc(F)ccc34)cc2)CCN1C[C@@H](O)CO` [Example 146, (R)-1-(2,3-dihydroxypropyl)-4-((4-(6-fluoro-1H-indol-3-yl)phenyl)sulfonyl)piperazin-2-one] as the compound, how does the IC50 read?
**A.** 380 nM
